Experimental data: patent US20250099634A1, “METHOD OF TREATING CANCER” (Novartis AG, priority 2023, published 2025)
Read-outs that look alike come from different tables or passages of the source.

Experiments:
[1] = NETTER-1 control arm, high dose (60 mg); cited from earlier work
[2] = tested on: midgut carcinoid tumors; conditions: cited from earlier work
[3] = NETTER-2 worst post-baseline hematology abnormalities based on CTC grades (Safety Set); assay type: in vivo, human; conditions: randomized treatment period; for Worst post-baseline abnormality: Hemoglobin (g/L)-Decrease / Worst post-baseline abnormality: Hemoglobin (g/L)-Increase / Worst post-baseline abnormality: Leukocytes (10E9/L)-Decrease / Worst post-baseline abnormality: Leukocytes (10E9/L)-Increase / Worst post-baseline abnormality: Lymphocytes (10E9/L)-Decrease / Worst post-baseline abnormality: Lymphocytes (10E9/L)-Increase / Worst post-baseline abnormality: Neutrophils (10E9/L)-Decrease / Worst post-baseline abnormality: Platelets (10E9/L)-Decrease: Safety Set
Text: The laboratory assessments require that blood samples for hematology and blood chemistry, and a urine sample for urinalysis are taken. Laboratory assessments will be performed at the investigational site.
Blood tests performed 4 weeks after any treatment cannot serve as baseline values for the next treatment.
All laboratory data will be listed by treatment group, subject, and visit/time and if normal ranges are available abnormalities will be flagged. Summary statistics will be provided by treatment and visit/time. Shift tables using the low/normal/high/(low and high) classification will be used to compare baseline to the worst on-treatment value.
Grading of laboratory values will be assigned programmatically as per NCI Common Terminology Criteria for Adverse Events (CTCAE) version 5.0 or current version. The calculation of CTCAE grades will be based on the observed laboratory values only, clinical assessments will not be taken into account.
The following summaries will be generated separately for hematology, and biochemistry tests: • 1. Listing of all laboratory data with values flagged to show the corresponding CTCAE grades if applicable and the classifications relative to the laboratory normal ranges • 2. For laboratory tests where grades are defined by CTCAE, • 3. Worst post-baseline CTCAE grade (regardless of the baseline status). Each subject will be counted only once for the worst grade observed post-baseline. • 4. Shift tables using CTCAE grades to compare baseline to the worst on-treatment value • 5. For laboratory tests where grades are not defined by CTCAE, • 6. Shift tables using the low/normal/high/(low and high) classification to compare baseline to the worst on-treatment value.

[4] = healthy subjects, 20 mg and 60 mg; cited from earlier work
[5] = All grades, randomized treatment period, Safety Set
[6] = Grade >=3, randomized treatment period, Safety Set
[7] = all grades, randomized treatment period
[8] = most frequent AEs, summary table

Compound: C[C@@H](O)[C@@H]1NC(=O)[C@H](CCCCN)NC(=O)[C@@H](Cc2c[nH]c3ccccc23)NC(=O)[C@H](Cc2ccccc2)NC(=O)[C@@H](NC(=O)[C@H](N)Cc2ccccc2)CSSC[C@@H](C(=O)N[C@H](CO)[C@@H](C)O)NC1=O [Octreotide LAR, octreotide]
- AEs leading to discontinuation of Any Treatment (Lutathera, Octreotide) [5]: 2 (2.7) n (%)
- AEs leading to discontinuation of Octreotide [5]: 2 (2.7) n (%)
- AEs leading to dose interruption of Any Treatment (Lutathera, Octreotide) [5]: 11 (15.1) n (%)
- AEs leading to dose interruption of Octreotide [5]: 11 (15.1) n (%)
- AEs leading to dose reduction of Any Treatment (Lutathera, Octreotide) [5]: 1 (1.4) n (%)
- AEs leading to dose reduction of Octreotide [5]: 1 (1.4) n (%)
- Adverse event: Abdominal pain [5]: 20 (27.4) n (%)
- Adverse event: Alanine aminotransferase increased [5]: 10 (13.7) n (%)
- Adverse event: Alopecia [5]: 1 (1.4) n (%)
- Adverse event: Anaemia [5]: 5 (6.8) n (%)
- Adverse event: Aspartate aminotransferase increased [5]: 8 (11.0) n (%)
- Adverse event: Asthenia [5]: 9 (12.3) n (%)
- Adverse event: COVID-19 [5]: 10 (13.7) n (%)
- Adverse event: Constipation [5]: 6 (8.2) n (%)
- Adverse event: Decreased appetite [5]: 7 (9.6) n (%)
- Adverse event: Diarrhoea [5]: 25 (34.2) n (%)
- Adverse event: Gamma-glutamyltransferase increased [5]: 8 (11.0) n (%)
- Adverse event: Headache [5]: 5 (6.8) n (%)
- Adverse event: Hyperglycaemia [5]: 11 (15.1) n (%)
- Adverse event: Lymphocyte count decreased [5]: 0 n (%)
- Adverse event: Oedema peripheral [5]: 6 (8.2) n (%)
- Adverse event: Platelet count decreased [5]: 4 (5.5) n (%)
- Adverse event: Vomiting [5]: 6 (8.2) n (%)
- Adverse event: Weight increased [5]: 5 (6.8) n (%)
- Adverse event: White blood cell count decreased [5]: 3 (4.1) n (%)
- Adverse events [5]: 69 (94.5) n (%)
- Adverse events Related to Any Treatment [5]: 43 (58.9) n (%)
- Adverse events Related to Octreotide [5]: 43 (58.9) n (%)
- Adverse events: Number of subjects with at least one event [5]: 69 (94.5) n (%)
- AEs leading to discontinuation of Any Treatment (Lutathera, Octreotide) [6]: 2 (2.7) n (%)
- AEs leading to discontinuation of Octreotide [6]: 2 (2.7) n (%)
- AEs leading to dose interruption of Any Treatment (Lutathera, Octreotide) [6]: 5 (6.8) n (%)
- AEs leading to dose interruption of Octreotide [6]: 5 (6.8) n (%)
- AEs leading to dose reduction of Any Treatment (Lutathera, Octreotide) [6]: 1 (1.4) n (%)
- AEs leading to dose reduction of Octreotide [6]: 1 (1.4) n (%)
- Adverse event: Abdominal pain [6]: 3 (4.1) n (%)
- Adverse event: Alanine aminotransferase increased [6]: 2 (2.7) n (%)
- Adverse event: Alopecia [6]: 0 n (%)
- Adverse event: Anaemia [6]: 1 (1.4) n (%)
- Adverse event: Aspartate aminotransferase increased [6]: 2 (2.7) n (%)
- Adverse event: Asthenia [6]: 0 n (%)
- Adverse event: COVID-19 [6]: 0 n (%)
- Adverse event: Constipation [6]: 0 n (%)
- Adverse event: Decreased appetite [6]: 0 n (%)
- Adverse event: Diarrhoea [6]: 1 (1.4) n (%)
- Adverse event: Gamma-glutamyltransferase increased [6]: 2 (2.7) n (%)
- Adverse event: Headache [6]: 0 n (%)
- Adverse event: Hyperglycaemia [6]: 2 (2.7) n (%)
- Adverse event: Lymphocyte count decreased [6]: 0 n (%)
- Adverse event: Oedema peripheral [6]: 1 (1.4) n (%)
- Adverse event: Platelet count decreased [6]: 0 n (%)
- Adverse event: Vomiting [6]: 1 (1.4) n (%)
- Adverse event: Weight increased [6]: 0 n (%)
- Adverse event: White blood cell count decreased [6]: 0 n (%)
- Adverse events [6]: 20 (27.4) n (%)
- Adverse events Related to Any Treatment [6]: 3 (4.1) n (%)
- Adverse events Related to Octreotide [6]: 3 (4.1) n (%)
- Adverse events: Number of subjects with at least one event [6]: 20 (27.4) n (%)
- adverse event by preferred term: abdominal pain [7]: 27.4%
- adverse event by preferred term: diarrhoea [7]: 34.2%
- Incidence of AEs: Abdominal pain [8]: 20 (27.4) (%)
- Incidence of AEs: Diarrhoea [8]: 25 (34.2) (%)
- AEs leading to discontinuation of Lutathera and/or Octreotide (randomized treatment period): 2.7%
- AEs leading to discontinuation of Octreotide (randomized treatment period): 2.7%
- Any AEs (randomized treatment period): 94.5%
- Grade 3/4 AE: GGT increased (randomized treatment period): 2.7%
- Grade 3/4 AE: Lymphocyte count decreased (randomized treatment period): 0%
- Grade 3/4 AE: abdominal pain (randomized treatment period): 4.1%
- Grade 3/4 AE: small intestinal obstruction (randomized treatment period): 0%
- Grade ≥3 AEs (randomized treatment period): 27.4%
- Grade ≥3 AEs, Treatment-related (randomized treatment period): 4.1%
- side effects [1]: without notable side effects
- confirmed events (disease progressions RECIST 1.1 centrally assessed or deaths) ([2]; NETTER-1): 70
- median PFS ([2]; NETTER-1): 8.5 months
- median time free from relapse ([2]; NETTER-1 control arm, high dose (60 mg)): 8.4 months
- Worst post-baseline abnormality: Hemoglobin (g/L)-Decrease ([3]; All grades (CTCAE v5.0)): 42 (57.5) n (%)
- Worst post-baseline abnormality: Hemoglobin (g/L)-Increase ([3]; All grades (CTCAE v5.0)): 2 (2.7) n (%)
- Worst post-baseline abnormality: Leukocytes (10E9/L)-Decrease ([3]; All grades (CTCAE v5.0)): 15 (20.5) n (%)
- Worst post-baseline abnormality: Leukocytes (10E9/L)-Increase ([3]; All grades (CTCAE v5.0)): 0 n (%)
- Worst post-baseline abnormality: Lymphocytes (10E9/L)-Decrease ([3]; All grades (CTCAE v5.0)): 45 (61.6) n (%)
- Worst post-baseline abnormality: Lymphocytes (10E9/L)-Increase ([3]; All grades (CTCAE v5.0)): 3 (4.1) n (%)
- Worst post-baseline abnormality: Neutrophils (10E9/L)-Decrease ([3]; All grades (CTCAE v5.0)): 9 (12.3) n (%)
- Worst post-baseline abnormality: Platelets (10E9/L)-Decrease ([3]; All grades (CTCAE v5.0)): 15 (20.5) n (%)
- Worst post-baseline abnormality: Hemoglobin (g/L)-Decrease ([3]; Grade 3/4 (CTCAE v5.0)): 2 (2.7) n (%)
- Worst post-baseline abnormality: Hemoglobin (g/L)-Increase ([3]; Grade 3/4 (CTCAE v5.0)): 0 n (%)
- Worst post-baseline abnormality: Leukocytes (10E9/L)-Decrease ([3]; Grade 3/4 (CTCAE v5.0)): 0 n (%)
- Worst post-baseline abnormality: Leukocytes (10E9/L)-Increase ([3]; Grade 3/4 (CTCAE v5.0)): 0 n (%)
- Worst post-baseline abnormality: Lymphocytes (10E9/L)-Decrease ([3]; Grade 3/4 (CTCAE v5.0)): 2 (2.7) n (%)
- Worst post-baseline abnormality: Lymphocytes (10E9/L)-Increase ([3]; Grade 3/4 (CTCAE v5.0)): 0 n (%)
- Worst post-baseline abnormality: Neutrophils (10E9/L)-Decrease ([3]; Grade 3/4 (CTCAE v5.0)): 0 n (%)
- Worst post-baseline abnormality: Platelets (10E9/L)-Decrease ([3]; Grade 3/4 (CTCAE v5.0)): 0 n (%)
- Grade 3/4 hematologic lab abnormality: lymphocytes decrease [3]: 2.7%
- plasma exposure vs dose [4]: dose-proportional
